# Source: patent US4865619A, “Use, as a coupler, of 2,4-diamino-1,3-dimethoxybenzene or one of its salts, in combination with oxidation dye precursors, for dyeing human hair, hair dyeing composition containing the said coupler and process for preparing the said coupler” (L'Oreal, priority 1987, dated 1989)
# What was measured:
# [1] = mutagenicity (coupler stated to be nonmutagenic)
# [2] = coloration of hair by the coupler in combination with oxidation dye precursors, oxidizing alkaline medium; design: species or system human
# Description: According to this process, the dyeing composition described above is mixed at the time of use with a sufficient quantity of an oxidizing solution, and the mixture obtained is then applied on the hair.
# The oxidizing solution contains oxidizing agents such as hydrogen peroxide, urea peroxide or persalts such as ammonium persulphate. "20 volumes" hydrogen peroxide solution is preferably used.
# The mixture obtained is applied on the hair; it is left in place for 10 to 40 minutes, preferably 15 to 30 minutes, after which the hair is rinsed, washed with shampoo, rinsed again and dried.
structure (smiles),measurement,setting,value
"COc1ccc(N)c(OC)c1N [2,4-diamino-1,3-dimethoxybenzene]",mutagenicity,[1],nonmutagenic
same,"stability of the hues to light, inclement weather and washing","[2]; para-aminophenols, after development in the presence of an oxidizing agent","especially stable to light, to inclement weather and to washing"
same,stability of the colorations,"[2]; red colorations, in combination with p-aminophenols, oxidizing alkaline medium",good stability
